US4421754A, “Syndonimine derivatives, process for production thereof, and use thereof” (Hidaka; Hiroyoshi, priority 1981, dated 1983)
Read-outs that look alike come from different tables or passages of the source.

How the values were obtained:
mesenteric artery = experiment: relaxing activity against contraction by KCl, extracted rabbit blood vessels (mesenteric artery); conditions: Oryctolagus cuniculus
Procedure: (§1) (1) Activity on the extracted blood vessels of a rabbit
(§2) A rabbit with a body weight of 2 to 3 kg was bled to death, and the thoracic aorta, mesenteric artery, renal artery, basilar artery and portal vein were extracted. Helical stripe specimens of these blood vessels were prepared. The specimens were suspended in a Magnus vessel, and the relaxing activity of the compound A against contraction of the specimens by KCl was examined. […] It is seen therefore that the compound A differs in activity from nitroglycerin having a strong relaxing activity on the veins, and has a strong relaxing activity on arteries, for example the coronary artery, the renal artery, etc.
(§3) The inhibiting activity on human platelet aggregation and the relaxing activity on mesenteric artery (the artery being extracted from rabbits) of compounds B to G of the invention were also examined in the same way as in I, (1) and (2). The mesenteric artery relaxing activity was shown in terms of the concentration (μM) of each compound which was required to cause 50% of the maximum relaxation, and the platelet aggregation inhibiting activity, in terms of the concentration (μM) of each compound which was required to inhibit aggregation to an extent of 50%. The platelet aggregation inhibiting activities of these compounds agreed relatively well with their artery relaxing activities

human platelet = experiment: inhibition of human platelet aggregation in PRP; type: cell-based
Excerpt: (2) Activity on human platelet
PRP (platelet-rich plasma) was centrifugally separated from human blood to which sodium citrate had been added, and used as a sample. Collagen, adrenaline and adenosine diphosphate were used as substances causing platelet aggregation. The inhibitory effect of the compound A against platelet aggregation included by these substances was examined.
as §3

portal vein = experiment: relaxing activity against contraction by KCl, extracted rabbit blood vessels (portal vein); conditions: Oryctolagus cuniculus, helical stripe specimens, read-out: ED50 (relaxing activity against KCl contraction)
Procedure: as §1, §2

basilar artery = experiment: relaxing activity against contraction by KCl, extracted rabbit blood vessels (basilar artery); conditions: Oryctolagus cuniculus, helical stripe specimens, read-out: ED50 (relaxing activity against KCl contraction)
Procedure: as §1, §2

coronary artery = experiment: relaxing activity against contraction by KCl, extracted rabbit blood vessels (coronary artery); conditions: Oryctolagus cuniculus, helical stripe specimens, read-out: ED50 (relaxing activity against KCl contraction)
Procedure: as §1, §2

thoracic aorta = experiment: relaxing activity against contraction by KCl, extracted rabbit blood vessels (thoracic aorta); conditions: Oryctolagus cuniculus, helical stripe specimens, read-out: ED50 (relaxing activity against KCl contraction)
Procedure: as §1, §2

renal artery = experiment: relaxing activity against contraction by KCl, extracted rabbit blood vessels (renal artery); conditions: Oryctolagus cuniculus, helical stripe specimens, read-out: ED50 (relaxing activity against KCl contraction)
Procedure: as §1, §2

[1] = activity on the respiration, blood pressure, heart rate and blood flow rate of a dog; type: in vivo, dog (male Beagle); conditions: intravenous, pentobarbital anesthesia
Procedure: (3) Activity on the respiration, blood pressure, heart rate and blood flow rate of a dog.
The test was carried out under pentobarbital anesthesia using a male Beagle dog having a body weight of about 10 kg. The respiration was measured by means of a pneumotachograph; the blood pressure, by inserting a cannula into the femoral artery; the heart rate, by a cardiotachometer; and the rate of blood flow, by means of an electromagnetic blood flow meter by mounting a measuring probe on the vertebral artery and the femoral artery.
The present compound A was intraveneously administered as a solution in physiological saline.

acute toxicity test = conditions: mouse, in vivo
Procedure: An acute toxicity test was carried out by using male dd-strain mice (body weight 16 to 20 g).

[2] = Table 1, artery extracted from rabbits, same way as in I (1), read-out: Mesenteric artery relaxing activity (concentration required to cause 50% of the maximum relaxation)
[3] = Table 1, human platelets, inducing substance not stated, read-out: Platelet aggregation inhibiting activity (concentration required to inhibit aggregation to an extent of 50%)

Work on `N=c1c[n+](N2CCN(CCCCCCCCC(=O)c3ccccc3)CC2)[n-]o1` [compound F, 3-[4-(8-benzoyloctyl)piperazin-1-yl]sydnonimine] yielded an EC50 (mesenteric artery; [2]) of 58 nM and an IC50 (human platelet; [3]) of 28 nM.

`N=c1c[n+](N2CCN(CC(=O)c3ccccc3)CC2)[n-]o1` [compound B, 3-[4-(benzoylmethyl)piperazin-1-yl]sydnonimine] gave an EC50 (mesenteric artery; [2]) of 160 nM and an IC50 (human platelet; [3]) of 140 nM.

For `N=c1c[n+](N2CCN(CCCC(=O)c3ccccc3)CC2)[n-]o1` [compound C, 3-[4-(3-benzoylpropyl)piperazin-1-yl]sydnonimine], the EC50 (mesenteric artery; [2]) was 2300 nM and the IC50 (human platelet; [3]) was 5400 nM.

`CC(C)CC(CCCN1CCN([n+]2cc(=N)o[n-]2)CC1)C(=O)c1ccccc1` (centres unmarked) [compound G, 3-[4-(4-benzoyl-6-methylheptyl)piperazin-1-yl]-sydnonimine] showed an EC50 (mesenteric artery; [2]) of 1300 nM and an IC50 (human platelet; [3]) of 11000 nM.

`N=c1c[n+](N2CCN(CCCCC(=O)c3ccccc3)CC2)[n-]o1` [compound A, 3-[4-(4-Benzoylbutyl)piperazin-1-yl]sydnonimine] showed an EC50 (portal vein) of 4000 nM, an EC50 (basilar artery) of 1300 nM and an EC50 (coronary artery) of 200 nM. It also gave an EC50 (mesenteric artery; mesenteric artery, KCl contraction, helical stripe specimens, read-out: ED50 (relaxing activity against KCl contraction)) of 200 nM, an EC50 (thoracic aorta) of 200 nM and an EC50 (renal artery) of 100 nM. The IC50 (human platelet; induced by adenosine diphosphate, human PRP, read-out: concentration which achieved a 50% inhibition of the platelet aggregation) was 1500 nM, the IC50 (human platelet; induced by adrenaline, human PRP, read-out: concentration which achieved a 50% inhibition of the platelet aggregation) was 800 nM and the IC50 (human platelet; induced by collagen, human PRP, read-out: concentration which achieved a 50% inhibition of the platelet aggregation) was 3400 nM. The “effect on respiration, blood pressure, heart rate and blood flow” value ([1]; 10 μg/kg) was “No appreciable effect was seen”, the blood pressure ([1]; 100 μg/kg) was “slight degrees of a fall in blood pressure” and the “force of the pulse” value ([1]; 100 μg/kg) was “a decrease in the force of the pulse”. For the same molecule, the blood pressure ([1]; 500 μg/kg) was “a transient fall in blood pressure and a subsequent lasting fall in blood pressure”, the “rate of blood flow” value ([1]; vertebral artery and femoral artery) was “tended to increase at the central part as compared with the peripheral part” and the LD50 (acute toxicity test; sc, subcutaneous administration) was 350 mg/kg. For the same molecule, the LD50 (acute toxicity test; intravenous administration) was 91 mg/kg and the LD50 (acute toxicity test; oral administration) was 750 mg/kg.

In the case of `N=c1c[n+](N2CCN(CCCCCC(=O)c3ccccc3)CC2)[n-]o1` [compound D, 3-[4-(5-benzoylpentyl)piperazin-1-yl]sydnonimine], the EC50 (mesenteric artery; [2]) is reported as 3000 nM and the IC50 (human platelet; [3]) is reported as 6300 nM.

In the case of `N=c1c[n+](N2CCN(CCCCCCC(=O)c3ccccc3)CC2)[n-]o1` [compound E, 3-[4-(6-benzoylhexyl)piperazin-1-yl]sydnonimine], the EC50 (mesenteric artery; [2]) is reported as 120 nM and the IC50 (human platelet; [3]) is reported as 940 nM.
